Tested on: expression of Fwa116 in human blood vessel endothelia cell
Experiment: Effect of ox-LDL and soybean genistein on expression of Fwa116 (Northern blotting)
Assay type: cell-based
Conditions: cells treated with ox-LDL (200 μg/mL) and soybean genistein (100 μM) simultaneously, FIG. 3
Procedure: Low density lipoproteins (LDL) with a density of 1.019 to 1.063 obtained by density gradient centrifugation were oxidized with Cu^2+ for 24 hours, filtrated through a 0.22 μm filter membrane, and stored at 4[…] in a dark place. The value of TBARS was determined and the ox-LDL was separated by electrophoresis on agarose gel. More than 10 nmol/mg of TBARS value and the increase of electrophoretic mobility indicated successful oxidation.
The frozen tube containing human blood vessel endothelia cells was taken out from liquid-nitrogen, and put rapidly into a water bath at 37[…]]. After being melted completely, the cell suspension was inoculated to a 25 mL culture bottle containing 5 mL of RPMI or DMEM with 10% FES. Culture was carried out overnight in an incubator at 37[…] and 5% of CO2 concentration. The medium was replaced on the next day.
When Cells were grown to substantial confluency (with a covering percentage of around 80%), the original medium was discarded. After Cells were rinsed twice with 1× PBS (pH7.4), 0.125% trypsin was added, and the cells were digested for 5-10 minutes at 37 °C. […] The number of cells was counted, and the cell suspension was inoculated to a culture bottle containing 5 mL of RPMI or DMEM with 10% FES to a concentration of 100,000 cells/mL. […]

O=c1c(-c2ccc(O)cc2)coc2cc(O)cc(O)c12 [soybean genistein, genistein]
increase of expression of Fwa116: more than 10 fold
